Assay results published in patent US8927463B2, “Sensitive high throughput method for DNA damage and repair” (priority 2013, dated 2015).
“Also recorded” adds a separate entry of the source. Read-outs that look alike come from different tables or passages of the source.

System: dsDNA
Assay: Real-time DNA melting assay (PicoGreen/ROX melting curves)
Source text: Components of this assay include 1) a reaction vessel free from DNase and RNase, 2) a dsDNA-specific dye, 3) a reference dye 4) dsDNA, and 5) the genotoxicant(s). […] As the sample is heated in the real-time thermocycler, the dsDNA melts becoming single-stranded. Single-stranded DNA no longer supports PicoGreen fluorescence, thus the relative amount of PicoGreen to ROX fluorescence declines proportionately to the loss of DNA base-pairing. As will be understood by the skilled artisan upon reading this disclosure, alternative fluorometric dyes or spectrophotometric dyes can be used in the method of the present invention.
In one embodiment, the raw dsDNA-specific fluorescence is normalized to the corresponding reference fluorescence at each temperature point to correct for decreased dye fluorescence resulting directly from the increasing solution temperature. This normalized fluorescence is then graphed as a function of temperature to produce the melting curve. Initial fluorescence from this curve is used to determine the extent of double-strand breakage. The first derivative of this melting curve is then plotted and used to determine both the initial melting temperature and the melting rate across the entire temperature gradient. […] A schematic representation of the typical melting curves is shown in FIG. 1 wherein, with increasing pH, salinity, or temperature, DNA dissociation increases resulting in a decrease in relative fluorescence.
The ability to detect DNA-damaging agents was first examined under conditions under which only the pharmaceutical agent was allowed to interact with the dsDNA.
(§1) Samples were analyzed using an ABI 7300 real time thermocycler over a temperature range of 4° C. to 99° C. Data is presented as PicoGreen fluorescence normalized to ROX.
as §1
Samples were analyzed over a temperature range of 4° C. to 99° C. using an ABI 7300 real time thermocycler. Data is presented as PicoGreen fluorescence normalized to ROX. […] When single strand breaks are in close proximity, double strand breaks can result.

[1] = dsDNA 1,000 ng/ml treated with increasing concentrations of compound, PicoGreen normalized to ROX, 4° C. to 99° C.

C[C@]12CC[C@@H]3c4cc(O)c(O)cc4CC[C@H]3[C@@H]1CC[C@@H]2O [2-hydroxyestradiol]
initial fluorescence [1]: increase in initial fluorescence | initial melting slope [1]: increase in initial melting slope

CC[C@@]1(O)C(=O)OCc2c1cc1n(c2=O)Cc2cc3ccccc3nc2-1 [camptothecin]
effect on DNA melting curves (dsDNA 1,000 ng/ml treated with non-genotoxic concentrations, PicoGreen normalized to ROX, 4° C. to 99° C.): lack of effect; also recorded: does not alter DNA melting

CC[C@H](c1ccc(O)cc1)[C@@H](CC)c1ccc(O)cc1 [hexestrol]
initial melting temperature: decrease in the initial melting temperature

O=C1C(=O)c2ccccc2-c2ccccc21 [phenanthrenequinone]
initial melting temperature (dsDNA 1,000 ng/ml treated with increasing concentrations of compound, PicoGreen fluorescence normalized to ROX, 4° C. to 99° C.): increase in the initial melting temperature
